From PubChem BioAssay (NCI)
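Cells were grown in 96-well plates and exposed to each compound for 48 hours at five concentrations; endpoints were interpolated linearly between bracketing concentrations, or set to the highest concentration if not reached. TGI denotes the concentration required for complete inhibition of growth.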

Legend:
Experiment in all cases: growth of human tumour cells (NCI), 48 h
[1] = test system: K-562 leukemia
[2] = test system: LOX IMVI melanoma
[3] = test system: SNB-19 CNS
[4] = test system: HS 578T breast
[5] = test system: HOP-62 NSCLC
[6] = test system: DU-145 prostate
[7] = test system: SW-620 colon
[8] = test system: T-47D breast
[9] = test system: HT29 colon
[10] = test system: IGROV1 ovarian
[11] = test system: UO-31 renal
[12] = test system: NCI-H460 lung
[13] = test system: NCI-H226 lung
[14] = test system: SF-539 CNS
[15] = test system: SF-295 CNS
[16] = test system: A498 renal
[17] = test system: UACC-257 melanoma
[18] = test system: ACHN renal
[19] = test system: A549 NSCLC
[20] = test system: M14 melanoma
[21] = test system: OVCAR-5 ovarian
[22] = test system: SNB-75 CNS
[23] = test system: MCF7 breast
[24] = test system: MDA-N
[25] = test system: CAKI-1 renal
[26] = test system: SK-MEL-2 melanoma
[27] = test system: PC-3 prostate
[28] = test system: SK-OV-3 ovarian
[29] = test system: RPMI-8226 leukemia
[30] = test system: MOLT-4 leukemia
[31] = test system: BT-549 breast
[32] = test system: TK-10 renal
[33] = test system: HCC-2998 colon
[34] = test system: OVCAR-8 ovarian
[35] = test system: CCRF-CEM leukemia
[36] = test system: HCT-15 colon
[37] = test system: SR leukemia
[38] = test system: KM12 colon
[39] = test system: U251 CNS
[40] = test system: OVCAR-3 ovarian
[41] = test system: EKVX NSCLC
[42] = test system: NCI-H23 lung
[43] = test system: SK-MEL-5 melanoma
[44] = test system: 786-0 renal
[45] = test system: NCI-H522 lung
[46] = test system: UACC-62 melanoma
[47] = test system: COLO 205 colon
[48] = test system: HL-60(TB) leukemia
[49] = test system: RXF 393 renal
[50] = test system: MDA-MB-435
[51] = test system: NCI/ADR-RES ovarian
[52] = test system: SF-268 CNS
[53] = test system: SN12C renal
[54] = test system: MDA-MB-231 breast
[55] = test system: MALME-3M melanoma
[56] = test system: HCT-116 colon
[57] = test system: OVCAR-4 ovarian
[58] = test system: SK-MEL-28 melanoma

`COc1cc(/C=C2\CC/C(=C\c3cc(OC)c(O)c(OC)c3)C2=O)cc(OC)c1O` was tested, and the TGI [1] was 14.2 µM, the TGI [2] was 6.26 µM and the TGI [3] was over 100 µM. The TGI [4] was 15.8 µM, the TGI [5] was over 100 µM and the TGI [6] was 16.5 µM. The TGI [7] was over 100 µM, the TGI [8] was 8.02 µM and the TGI [9] was over 100 µM. It also gave a TGI [10] of 3.19 µM, a TGI [11] of over 26.7 µM and a TGI [12] of over 100 µM. It also gave a TGI [13] of over 33.3 µM, a TGI [14] of over 100 µM and a TGI [15] of over 100 µM. It also gave a TGI [16] of 2.86 µM, a TGI [17] of over 100 µM and a TGI [18] of 6.58 µM. It also gave a TGI [19] of over 62.1 µM, a TGI [20] of over 23.6 µM and a TGI [21] of over 100 µM. It also gave a TGI [22] of 8.06 µM, a TGI [23] of over 26.7 µM and a TGI [24] of over 23.4 µM. It also gave a TGI [25] of 7.32 µM, a TGI [26] of 2.02 µM and a TGI [27] of 19.7 µM. The TGI [28] was over 100 µM, the TGI [29] was 4.01 µM and the TGI [30] was 8 µM. It also gave a TGI [31] of 7.44 µM, a TGI [32] of over 100 µM and a TGI [33] of 3.38 µM. For the same compound, the TGI [34] was over 26.1 µM, the TGI [35] was 23.1 µM and the TGI [36] was 18.7 µM. The TGI [37] was over 100 µM, the TGI [38] was 4.52 µM and the TGI [39] was over 49.2 µM. It also gave a TGI [40] of over 21.8 µM, a TGI [41] of 16.5 µM and a TGI [42] of 5.72 µM. For the same compound, the TGI [43] was 5.57 µM, the TGI [44] was over 100 µM and the TGI [45] was 2.75 µM. For the same compound, the TGI [46] was 3.8 µM, the TGI [47] was 54.2 µM and the TGI [48] was 8.62 µM. It also gave a TGI [49] of 3.74 µM, a TGI [50] of 4.19 µM and a TGI [51] of 13.9 µM. It also gave a TGI [52] of 36.5 µM, a TGI [53] of over 29.3 µM and a TGI [54] of 21.4 µM. It also gave a TGI [55] of 1.74 µM, a TGI [56] of over 23.2 µM and a TGI [57] of 6.05 µM.

In the case of `Cn1cnc(N)c(N=O)c1=O`, the TGI [1] is reported as over 10 µM, the TGI [2] is reported as over 10 µM and the TGI [3] is reported as over 10 µM. For the same compound, the TGI [4] was over 10 µM, the TGI [5] was over 10 µM and the TGI [6] was over 10 µM. For the same compound, the TGI [7] was over 10 µM, the TGI [8] was over 10 µM and the TGI [9] was over 10 µM. It also gave a TGI [10] of over 10 µM, a TGI [12] of over 10 µM and a TGI [13] of over 10 µM. It also gave a TGI [14] of over 10 µM, a TGI [15] of over 10 µM and a TGI [16] of over 10 µM. It also gave a TGI [17] of over 10 µM, a TGI [18] of over 10 µM and a TGI [19] of over 10 µM. The TGI [20] was over 10 µM, the TGI [21] was over 10 µM and the TGI [22] was over 10 µM. The TGI [23] was over 10 µM, the TGI [24] was over 10 µM and the TGI [25] was over 10 µM. It also gave a TGI [26] of over 10 µM, a TGI [27] of over 10 µM and a TGI [58] of over 10 µM. The TGI [28] was over 10 µM, the TGI [29] was over 10 µM and the TGI [30] was over 10 µM. For the same compound, the TGI [31] was over 10 µM, the TGI [32] was over 10 µM and the TGI [33] was over 10 µM. For the same compound, the TGI [34] was over 10 µM, the TGI [35] was over 10 µM and the TGI [36] was over 10 µM. It also gave a TGI [37] of over 10 µM, a TGI [38] of over 10 µM and a TGI [39] of over 10 µM. It also gave a TGI [40] of over 10 µM, a TGI [41] of over 10 µM and a TGI [42] of over 10 µM. The TGI [43] was over 10 µM, the TGI [44] was over 10 µM and the TGI [45] was over 10 µM. It also gave a TGI [46] of over 10 µM, a TGI [47] of over 10 µM and a TGI [48] of over 10 µM. For the same compound, the TGI [49] was over 10 µM, the TGI [50] was over 10 µM and the TGI [51] was over 10 µM. It also gave a TGI [52] of over 10 µM, a TGI [53] of over 10 µM and a TGI [54] of over 10 µM. For the same compound, the TGI [55] was over 10 µM, the TGI [56] was over 10 µM and the TGI [57] was over 10 µM.
